Results published in patent publication US6821988B2, “3-cyanoquinolines as inhibitors of EGF-R and HER2 kinases” (Wyeth Holdings Corporation, priority 2001, dated 2004).
Converted amounts (≈) assume the structure as drawn.

Columns and labels:
[1] = biological target: T1, human HER2 cytoplasmic domain (HER2-CD, amino acid 676-1255) (Homo sapiens, UniProt P04626); test: Inhibition of HER2 kinase autophosphorylation, recombinant enzyme, DELFIA/time-resolved fluorometry; type: biochemical; settings: for IC50: recombinant HER2 autophosphorylation
T1 construct: human HER2 cytoplasmic domain (HER2-CD, amino acid 676-1255); made in house; host or cells: Sf-9 insect cells, baculovirus (pBlueBacHis2B)
Procedure: (§1) A 1.7 kb cDNA encoding human HER2 cytoplasmic domain (HER2-CD, amino acid 676-1255) and 1.6 kb cDNA for EGFR cytoplasmic domain (EGFR-CD, amino acid 645-1186) were cloned into baculoviral expression vectors, pBlueBacHis2B (Invitrogen) and pFASTBacHTc (GIBCO), separately. A sequence encoding (His)6 is located at the 5′ end upstream to HER2 and EGFR sequences. Sf-9 cells were infected at moi=10 for 3 days for protein expression. Sf-9 cell pellets were solubilized on ice in buffer containing 50 mM HEPES, pH 7.4, 10 mM NaCl, 1% Triton, 10 μM ammonium molybdate, 100 μM sodium vanadate, 10 μg/ml aprotinin, 10 μg/ml leupeptin, 10 μg/ml pepstatin, and 16 ug/ml benzamidine HCl for 20 min followed by 20 min centrifugation. Crude extract supernatant was passed through equilibrated Ni-NTA superflow packed column (Qiagen, Valencia, Calif.) and wash with 10 mM, and 100 mM imidazole to remove unspecific binding. Histidine-tagged proteins were eluted with 250 mM and 500 mM imidazole and dialyzed against 50 mM NaCl, 20 mM HEPES, 10% glycerol and 1 μg/ml each of aprotinin, leupeptin and pepstatin for 2 h. All the purification procedure was performed at 4° C. or on ice. Purified materials were subjected for electrophoresis followed by Coommassie blue stain to determine the purity of the preparation and Western blot for the identity of protein. Enzymes were aliquoted and stored at −80° C.
(§2) Inhibition of EGFR and HER2 kinase autophosphorylation was measured by a DELFIA/time-resolved fluorometry assay. Compounds were dissolved in 100% DMSO and diluted to the appropriate concentrations with 25 mM HEPES, pH 7.4. In each well, 10 μl of compound was incubated with 10 μl of recombinant EGF-R or HER2 enzyme (1:80 dilution in 100 mM HEPES) for 10 min at room temperature. Then, 10 μl of 5×buffer (containing 20 mM HEPES, 2 mM MnCl2, 100 uM Na3VO4 and 1 mM DTT) and 20 μl of 0.1 mM ATP/50 mM MgCl2 was added for 1 h. Positive and negative controls were included in each plate by incubation of enzyme with or without ATP/MgCl2. At the end of incubation, liquid was aspirated and washed three times with wash buffer. 75 μl (400 ng).of europium-labeled anti-phosphotyrosine antibody was added to each well for another hour of incubation. After wash, enhancement solution was added and the signal was detected by Victor (Wallac Inc) with excitation at the wavelength of 340 nm and emission at the wavelength of 615 nm. All reagents were supplied by Wallac Inc (Wallac/Perkin-Elimer). Percentage of autophosphorylation inhibition by compound was calculated by […]. IC50 values were obtained from curves of percentage inhibition with 8 doses of compound.

[2] = tested on: SW620 (colon carcinoma); test: Inhibition of cancer cell growth, sulforhodamine B assay, SW620; type: cell-based, human; settings: SW620, 2 days; for IC50: Homo sapiens, SW-620, 48 h, read-out: Inhibition of Cancer Cell Growth in vitro IC50, SW620
Procedure: (§3) […], A431 (epidermoid carcinoma), SKBR3 (breast carcinoma), SW620 (colon carcinoma), and MDA-MB435 (breast carcinoma), BT474 (breast carcinoma), and two murine lines, 3T3 (murine fiboblasts) and HER2-3T3 (murine fiboblasts transfected with human HER2) were used for cell proliferation assays. Cells were maintained in RPMI -1640 medium supplemented with 5% fetal bovine serum. Cells were plated in 96-well plates at the densities of 2.5×10^4/ml for 3T3 and 3T3/HER2 and 5.0×10^4/ml for the rest of the cell lines. On the next day, compounds were dosed at 0.5, 5, 50, 500, and 5000 ng/ml and cultured for 2 days. At the end of incubation, cell survival was determined by the sulforhodamine B assay as previously described (Skehan, P; Stornet, R.; Scudiero, D.; Monks, A.; McMahon, J.; Vistica D., Warren, J.; Bokbosch, H.; Kenny, S.; Boyd, M. New Colorimetric Cytotoxic Assay for Anticancer-Drug Screening. J. Natl. Cancer Inst. 1990, 82, 1107-1112). The IC50 values (the concentration needed to inhibit cell growth by 50%) were obtained from the growth curves and are shown below in Table 2 where the results of multiple determinations are included.

[3] = tested on: SKBR3 (breast carcinoma); test: Inhibition of cancer cell growth, sulforhodamine B assay, SKBR3; type: cell-based, human; settings: SKBR3, 2 days; for IC50: Homo sapiens, SK-BR-3, 48 h, read-out: Inhibition of Cancer Cell Growth in vitro IC50, SKBR3
Procedure: as §3

[4] = tested on: 3T3 (murine fiboblasts); test: Inhibition of cell growth, sulforhodamine B assay, 3T3; type: cell-based; settings: 3T3, 2 days; for IC50: Mus musculus, 48 h, read-out: Inhibition of Cancer Cell Growth in vitro IC50, 3T3
Procedure: as §3

[5] = tested on: HER2-3T3 (murine fiboblasts transfected with human HER2); test: Inhibition of cell growth, sulforhodamine B assay, HER2-3T3; type: cell-based; settings: HER2-3T3, 2 days; for IC50: Mus musculus, 48 h, read-out: Inhibition of Cancer Cell Growth in vitro IC50, HER2-3T3
Procedure: as §3

[6] = tested on: Murine 3T3 fibroblasts, tranfected with Her2; test: In vivo inhibition of the growth of tumors of murine 3T3 fibroblasts transfected with HER2 in nude mice; set-up: species or system Athymic nu/nu female mice
Procedure: Representative compounds of this invention (listed below) were evaluated in an in vivo standard pharmacological test procedure which measures their ability to inhibit tumor growth in nude mice. Murine 3T3 fibroblasts, tranfected with Her2 were grown in vitro. Athymic nu/nu female mice (Charles River, Wilmington, Mass.) were used in this in vivo standard pharmacological test procedure. A unit of 2×10^6 cells was injected SC into mice (day zero). Beginning on day 1, mice were treated IP every other day for a total of 11 days with a dose of 30 mg/kg/dose of the compound to be evaluated in 0.5% Methocel/0.4% Tween 80. Control animals received vehicle alone. […] Absolute tumor growth in mgs, (mean tumor mass on days 7, 14 and 21), is calculated for each treatment group. Statistical analysis (Student t-test) of Mean Tumor Mass compares treated verses control groups. A p-value of ≦0.05 indicates a statistically significant reduction in tumor growth of treated group compared to the vehicle control.
The compound of Example 7 was evaluated for its ability to inhibit the growth of a murine fiboblast tumor that was transfected with human HER2 in vivo using the standard pharmacological test procedure described above.

[7] = biological target: T2, EGFR cytoplasmic domain (EGFR-CD, amino acid 645-1186) (Homo sapiens, UniProt P00533); test: Inhibition of EGF-R kinase autophosphorylation, recombinant enzyme, DELFIA/time-resolved fluorometry; type: biochemical
T2 construct: EGFR cytoplasmic domain (EGFR-CD, amino acid 645-1186); made in house; host or cells: Sf-9 insect cells, baculovirus (pFASTBacHTc)
Procedure: as §1, §2

[8] = tested on: MDA-MB435 (breast carcinoma); test: Inhibition of cancer cell growth, sulforhodamine B assay, MDA-MB435; type: cell-based, human; settings: MDA-MB435, 2 days; for IC50: Homo sapiens, MDA-MB-435, 48 h, read-out: Inhibition of Cancer Cell Growth in vitro IC50, MDA-MB435
Procedure: as §3

[9] = tested on: A431 (epidermoid carcinoma); test: Inhibition of cancer cell growth, sulforhodamine B assay, A431; type: cell-based, human; settings: A431, 2 days; for IC50: Homo sapiens, A-431, 48 h, read-out: Inhibition of Cancer Cell Growth in vitro IC50, A431
Procedure: as §3

[10] = 30 mg/kg/dose IP on days 1, 3, 5, 7, 9 and 11, day 7
[11] = 30 mg/kg/dose IP on days 1, 3, 5, 7, 9 and 11, day 14

T2 sequence (P00533 669-1210): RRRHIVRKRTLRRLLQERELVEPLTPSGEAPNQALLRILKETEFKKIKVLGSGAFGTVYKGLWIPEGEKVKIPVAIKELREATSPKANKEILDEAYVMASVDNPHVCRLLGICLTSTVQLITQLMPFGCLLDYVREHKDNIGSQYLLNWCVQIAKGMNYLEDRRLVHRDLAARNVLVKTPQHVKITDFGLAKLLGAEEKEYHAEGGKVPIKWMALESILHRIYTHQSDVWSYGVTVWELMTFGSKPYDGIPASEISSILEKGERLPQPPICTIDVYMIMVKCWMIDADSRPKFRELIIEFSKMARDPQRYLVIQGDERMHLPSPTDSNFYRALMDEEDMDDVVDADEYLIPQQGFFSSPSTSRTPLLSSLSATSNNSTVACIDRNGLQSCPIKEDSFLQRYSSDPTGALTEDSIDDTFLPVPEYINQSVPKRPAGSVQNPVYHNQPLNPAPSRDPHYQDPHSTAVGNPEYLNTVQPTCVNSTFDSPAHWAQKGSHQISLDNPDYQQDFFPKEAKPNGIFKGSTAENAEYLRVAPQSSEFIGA
T1 sequence (P04626 676-1255): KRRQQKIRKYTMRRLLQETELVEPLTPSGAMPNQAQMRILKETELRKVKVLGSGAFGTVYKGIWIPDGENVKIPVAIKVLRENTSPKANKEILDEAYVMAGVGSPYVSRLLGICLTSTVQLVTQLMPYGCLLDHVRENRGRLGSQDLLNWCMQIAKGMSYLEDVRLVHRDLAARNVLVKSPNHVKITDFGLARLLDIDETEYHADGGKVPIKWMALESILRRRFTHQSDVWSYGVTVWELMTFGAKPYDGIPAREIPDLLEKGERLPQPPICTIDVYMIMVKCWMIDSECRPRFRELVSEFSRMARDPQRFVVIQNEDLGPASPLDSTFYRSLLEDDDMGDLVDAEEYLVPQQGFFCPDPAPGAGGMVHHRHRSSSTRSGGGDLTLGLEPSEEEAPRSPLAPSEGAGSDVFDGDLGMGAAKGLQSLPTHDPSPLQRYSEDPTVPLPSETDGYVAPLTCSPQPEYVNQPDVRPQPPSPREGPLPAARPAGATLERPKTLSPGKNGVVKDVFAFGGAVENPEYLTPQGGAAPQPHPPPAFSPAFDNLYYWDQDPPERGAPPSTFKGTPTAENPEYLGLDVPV

SMILES | IC50 [1] [nM] | IC50 [2] [µg/mL] | Inhibition of Cancer Cell Growth in vitro IC50, SW620 [2] [µg/mL] | Inhibition of Cancer Cell Growth in vitro IC50, SKBR3 [3] [µg/mL] | Inhibition of Cancer Cell Growth in vitro IC50, 3T3 [4] [µg/mL] | IC50 [4] [µg/mL] | Inhibition of Cancer Cell Growth in vitro IC50, HER2-3T3 [5] [µg/mL] | IC50 [5] [µg/mL] | melting point [°C] | EGF-R IC50 [7] [µg/mL] | IC50 [8] [µg/mL] | Inhibition of Cancer Cell Growth in vitro IC50, MDA-MB435 [8] [µg/mL] | Inhibition of Cancer Cell Growth in vitro IC50, A431 [9] [µg/mL] | IC50 [9] [µg/mL] | IC50 [3] [µg/mL] | further results
CCOc1cc2ncc(C#N)c(Nc3ccc(OCc4ccccc4)c(Cl)c3)c2cc1NC(=O)CC(CN1CCCC1)N1CCCC1 (stereo not shown) [Example 7, N-{4-[4-(Benzyloxy)-3-chloroanilino]-3-cyano-7-ethoxy-6-quinolinyl}-3,4-di(1-pyrrolidinyl)butanamide] | 33.7 | 0.23 (≈ 0.352 µM) | 0.28 | 0.0025 | 0.37 | 0.35 (≈ 0.536 µM) | 0.014 | 0.017 (≈ 0.026 µM) | – | – | – | – | – | – | – | inhibition of tumor growth (in words) ([6]; 30 mg/kg i.p.): significantly inhibited tumor growth; tumors in the control mice larger than tumors in treated mice (fold) ([6]; 30 mg/kg i.p., day 14): 8.5 times; % T/C Day 7 [6, 10]: 15%; Mean Tumor Weight Day 7 [6, 10]: 39 mg; % T/C Day 14 [6, 11]: 12%; Mean Tumor Weight Day 14 [6, 11]: 261 mg; Mean Tumor Weight Day 21 ([6]; 30 mg/kg/dose IP on days 1, 3, 5, 7, 9 and 11, day 21): 1849 mg; S/T = No. Survivors/No. on Day +28 post tumor cell implantation ([6]; 30 mg/kg/dose IP on days 1, 3, 5, 7, 9 and 11, day +28): 10/10
CCOc1cc2ncc(C#N)c(Nc3ccc(OCc4ccccc4)c(Cl)c3)c2cc1NC(=O)CC(CN(C)C)N(C)C (stereo not shown) [Example 9, N-{4-[4-(Benzyloxy)-3-chloroanilino]-3-cyano-7-ethoxy-6-quinolinyl}-3,4-bis(dimethylamino)butanamide] | – | – | – | – | – | – | – | – | 102 to 104 | – | – | – | – | – | – | –
CCOc1cc2ncc(C#N)c(Nc3ccc(OCc4ccccc4)c(Cl)c3)c2cc1NC(=O)CC(CCCN(C)C)N(C)C (stereo not shown) [Example 5, N-{4-[4-(Benzyloxy)-3-chloroanilino]-3-cyano-7-ethoxy-6-quinolinyl}-3,6-bis(dimethylamino)hexanamide] | 1590 | 0.19 (≈ 0.302 µM) | – | – | – | 0.42 (≈ 0.668 µM) | – | 1.1 (≈ 1.75 µM) | – | 1.0 | 0.36 (≈ 0.572 µM) | 0.49 | 0.73 | 0.87 (≈ 1.38 µM) | – | –
CCOc1cc2ncc(C#N)c(Nc3ccc(F)c(Cl)c3)c2cc1NC(=O)CC(C)N(C)C (stereo not shown) [Example 3, N-[4-(3-Chloro-4-fluoroanilino)-3-cyano-7-ethoxy-6-quinolinyl]-3-(dimethylamino)butanamide] | 10000 | 1.1 (≈ 2.34 µM) | – | 0.17 | – | 1.3 (≈ 2.77 µM) | – | 1.7 (≈ 3.62 µM) | – | 0.33 | – | – | 0.27 | 0.48 (≈ 1.02 µM) | 0.11 (≈ 0.234 µM) | –
COc1cc2ncc(C#N)c(Nc3ccc(F)c(Cl)c3)c2cc1NC(=O)CC(CN1CCC(O)C1)N1CCC(O)C1 (stereo not shown) [Example 2, N-[4-(3-Chloro-4-fluoro-phenylamino)-3-cyano-7-methoxy-quinolin-6-yl]-3,4-bis-(3-hydroxy-pyrrolidin-1-yl)-butyramide] | – | 2.95 (≈ 5.06 µM) | 2.58 | 0.128 | 4.39 | 4.47 (≈ 7.67 µM) | 0.702 | 1.26 (≈ 2.16 µM) | 139 to 143 | – | 4.05 (≈ 6.95 µM) | 3.25 | 0.466 | 0.572 (≈ 0.981 µM) | 0.129 (≈ 0.221 µM) | inhibition at 2 µg/mL ([1]; read-out: HER2 % Inhibition at 2 μg/mL): 57%
CCOc1cc2ncc(C#N)c(Nc3ccc(F)c(Cl)c3)c2cc1NC(=O)CC(CN(C)C)SCC(NC(=O)CC[C@@H](N)C(=O)O)C(=O)NCC(=O)O (stereo partly drawn) [Example 8, (2R)-2-amino-5-({2-[(carboxymethyl)amino]-1-[({3-{[4-(3-chloro-4-fluoroanilino)-3-cyano-7-ethoxy-6-quinolinyl]amino}-1-[(dimethylamino)methyl]-3-oxopropyl}sulfanyl)methyl]-2-oxoethyl}amino)-5-oxopentanoic acid] | 854 | > 5 | – | – | – | > 5 | – | – | – | – | – | – | 0.21 | 0.2 (≈ 0.258 µM) | – | IC50 [7]: 2190 nM
